Measured values as given in US12227490B2, “Cereblon binding compounds, compositions thereof, and methods of treatment therewith” (Celgene Corporation, priority 2020, dated 2025).

Target: T1, AR (androgen receptor) protein in VCaP cells (Homo sapiens, UniProt P10275)
T1 construct: endogenous in cells; host or cells: VCaP cells
T1 sequence (P10275 1-920): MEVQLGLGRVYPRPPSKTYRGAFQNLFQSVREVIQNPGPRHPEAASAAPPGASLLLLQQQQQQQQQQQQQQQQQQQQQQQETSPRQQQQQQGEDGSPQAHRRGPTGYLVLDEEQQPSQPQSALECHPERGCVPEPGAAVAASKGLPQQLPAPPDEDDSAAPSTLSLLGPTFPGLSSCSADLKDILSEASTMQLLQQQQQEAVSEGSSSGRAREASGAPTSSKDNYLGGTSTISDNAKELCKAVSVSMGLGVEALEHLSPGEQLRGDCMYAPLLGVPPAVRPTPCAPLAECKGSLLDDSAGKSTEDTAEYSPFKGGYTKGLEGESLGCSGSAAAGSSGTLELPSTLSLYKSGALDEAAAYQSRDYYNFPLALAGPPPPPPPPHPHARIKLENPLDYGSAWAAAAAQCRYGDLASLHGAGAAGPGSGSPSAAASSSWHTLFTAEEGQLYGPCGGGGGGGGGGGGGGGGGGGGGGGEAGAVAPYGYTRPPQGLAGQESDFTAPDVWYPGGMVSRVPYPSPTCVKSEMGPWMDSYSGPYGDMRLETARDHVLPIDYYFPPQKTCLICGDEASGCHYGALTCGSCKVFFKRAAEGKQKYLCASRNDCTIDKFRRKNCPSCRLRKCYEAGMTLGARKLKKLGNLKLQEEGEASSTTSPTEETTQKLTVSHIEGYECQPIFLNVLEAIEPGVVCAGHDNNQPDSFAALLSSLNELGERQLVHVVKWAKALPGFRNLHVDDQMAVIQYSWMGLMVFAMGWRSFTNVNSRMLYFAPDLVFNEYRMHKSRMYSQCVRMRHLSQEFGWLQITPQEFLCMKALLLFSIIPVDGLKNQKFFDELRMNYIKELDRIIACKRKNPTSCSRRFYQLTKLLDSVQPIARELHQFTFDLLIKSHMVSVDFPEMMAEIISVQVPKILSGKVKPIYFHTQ
Experiment: VCAP AR Degradation Assay
Format: cell-based
Details: 24 h, AR ELISA; for DC50: concentration of compound when AR level = 50% of DMSO control; for remaining activity at up to 5 µM: top concentration 5 μM, read-out: Y (lowest measured AR level normalized to DMSO control, AR degradation efficiency)
Procedure: VCAP AR Degradation Assay. Test compounds were pre-dispensed into a Corning CellBind 96-well clear bottom plate (Cat #3300) using an acoustic dispenser to make a 10-point concentration series at 1:3 dilution for each compound. The final top concentration of each compound was 5 μM. DMSO at a final concentration of 0.1% was used as a control. VCaP cells cultured in DMEM with 8% fetal bovine serum (FBS) were seeded at 50K cells per well in a 200 μL volume into the compound plate and incubated at 37° C. in a CO2 incubator for 24 h. The medium was carefully removed from the cells and the plate was placed on ice. One hundred μL of ice-cold 1× cell lysis buffer from Cell Signaling Technologies (Cat #9803) was added to each well of the cells and the plate was incubated at 4° C. on a shaker for 1 h. Fifteen μL of cell lysate was used for AR ELISA detection using a PathScan Total Sandwich AR ELISA kit (Cell Signaling Technology, Cat #12580). AR levels in compound-treated wells were normalized to that of DMSO control and expressed as percent of control (PoC) (y). A Four Parameter Logistic Model (Sigmoidal Dose-Response Model) was used to determine the compound's DC50, and EC50, using the following equation: y=(A+((B−A)/(1+((C/x)^D)))) • A=YMin (lowest AR level normalized to DMSO control in response to compound treatment, as determined by curve fit) • B=YMax (maximum AR level as determined by curve fit) • C=EC50 • D=Hill Slope • x=compound concentration • EC50=the concentration of compound when y=(YMax−YMin)/2 • DC50=the concentration of the compound when y=50% of DMSO control (50% AR degradation) • y=AR protein level normalized to DMSO control
The lowest measured AR level normalized to DMSO control in response to compound treatment, termed Y value, was used to characterize the compound-mediated AR degradation efficiency.

Compound `C[C@@H]1C[C@H](OCCC[C@H]2CC[C@H](N3C(=S)N(c4cnc(C#N)c(C(F)(F)F)c4)C(=O)C3(C)C)CC2)C[C@H](C)N1CC(=O)Nc1cccc2c(C3CCC(=O)NC3=O)nn(C)c12` (stereo partly drawn) [Cmpd 24, 2-((2R,4r,6S)-4-(3-((trans)-4-(3-(6-Cyano-5-(trifluoromethyl)pyridin-3-yl)-5,5-dimethyl-4-oxo-2-thioxoimidazolidin-1-yl)cyclohexyl)propoxy)-2,6-dimethylpiperidin-1-yl)-N-(3-(2,6-dioxopiperidin-3-yl)-1-methyl-1H-indazol-7-yl)acetamide] has a DC50 of 5 to 20 nM and a remaining activity at up to 5 µM of 0 to 25%.
Compound `C[C@@H]1C[C@H](OCC[C@H]2CC[C@H](N3C(=S)N(c4cnc(C#N)c(C(F)(F)F)c4)C(=O)C3(C)C)CC2)C[C@H](C)N1CC(=O)Nc1cccc2c(C3CCC(=O)NC3=O)nn(C)c12` (stereo partly drawn) [Cmpd 25, 2-((2R,4r,6S)-4-(2-((trans)-4-(3-(6-Cyano-5-(trifluoromethyl)pyridin-3-yl)-5,5-dimethyl-4-oxo-2-thioxoimidazolidin-1-yl)cyclohexyl)ethoxy)-2,6-dimethylpiperidin-1-yl)-N-(3-(2,6-dioxopiperidin-3-yl)-1-methyl-1H-indazol-7-yl)acetamide] has a DC50 of 2 to 5 nM and a remaining activity at up to 5 µM of 0 to 25%.
In the case of `C[C@@H]1C[C@H](OCC[C@H]2CC[C@H](N3C(=S)N(c4ccc(C#N)c(C(F)(F)F)c4)C(=O)C3(C)C)CC2)C[C@H](C)N1CC(=O)Nc1cccc2c(C3CCC(=O)NC3=O)nn(C)c12` (stereo partly drawn) [Cmpd 26, 2-((2R,4r,6S)-4-(2-((trans)-4-(3-(4-Cyano-3-(trifluoromethyl)phenyl)-5,5-dimethyl-4-oxo-2-thioxoimidazolidin-1-yl)cyclohexyl)ethoxy)-2,6-dimethylpiperidin-1-yl)-N-(3-(2,6-dioxopiperidin-3-yl)-1-methyl-1H-indazol-7-yl)acetamide], the DC50 is reported as 5 to 20 nM and the remaining activity at up to 5 µM is reported as 0 to 25%.
`C[C@@H]1C[C@H](OCCO[C@H]2CC[C@H](N3C(=S)N(c4ccc(C#N)c(C(F)(F)F)c4)C(=O)C3(C)C)CC2)C[C@H](C)N1CC(=O)Nc1cccc2c(C3CCC(=O)NC3=O)nn(C)c12` (stereo partly drawn) [Cmpd 27, 2-((2R,4r,6S)-4-(2-(((trans)-4-(3-(4-Cyano-3-(trifluoromethyl)phenyl)-5,5-dimethyl-4-oxo-2-thioxoimidazolidin-1-yl)cyclohexyl)oxy)ethoxy)-2,6-dimethylpiperidin-1-yl)-N-(3-(2,6-dioxopiperidin-3-yl)-1-methyl-1H-indazol-7-yl)acetamide] gave a DC50 of 2 to 5 nM and a remaining activity at up to 5 µM of 25 to 30%.
In the case of `C[C@@H]1C[C@H](OCCO[C@H]2CC[C@H](N3C(=S)N(c4cnc(C#N)c(C(F)(F)F)c4)C(=O)C3(C)C)CC2)C[C@H](C)N1CC(=O)Nc1cccc2c(C3CCC(=O)NC3=O)nn(C)c12` (stereo partly drawn) [Cmpd 28, 2-((2R,4r,6S)-4-(2-(((trans)-4-(3-(6-Cyano-5-(trifluoromethyl)pyridin-3-yl)-5,5-dimethyl-4-oxo-2-thioxoimidazolidin-1-yl)cyclohexyl)oxy)ethoxy)-2,6-dimethylpiperidin-1-yl)-N-(3-(2,6-dioxopiperidin-3-yl)-1-methyl-1H-indazol-7-yl)acetamide], the DC50 is reported as under 2 nM and the remaining activity at up to 5 µM is reported as 0 to 25%.
Compound `Cn1nc(C2CCC(=O)NC2=O)c2cccc(NC(=O)CN3CCC(CCO[C@H]4CC[C@H](N5C(=S)N(c6cnc(C#N)c(C(F)(F)F)c6)C(=O)C5(C)C)CC4)C(F)(F)C3)c21` (stereo partly drawn) [Cmpd 29, 2-(4-(2-(((trans)-4-(3-(6-Cyano-5-(trifluoromethyl)pyridin-3-yl)-5,5-dimethyl-4-oxo-2-thioxoimidazolidin-1-yl)cyclohexyl)oxy)ethyl)-3,3-difluoropiperidin-1-yl)-N-(3-(2,6-dioxopiperidin-3-yl)-1-methyl-1H-indazol-7-yl)acetamide] has a DC50 of under 2 nM and a remaining activity at up to 5 µM of 0 to 25%.
